Source: patent US20250082625A1, “NOVEL THERAPY” (priority 2016, published 2025)
“Also recorded” adds a separate entry of the source.

Tests used:
[1] = test system: Nlrp3^−/− mice infected with CY-17; assay: Disease severity / bladder pathology in CY-17 infected Nlrp3^−/− mice (murine acute cystitis model); type: in vivo
Method: To inhibit the NK1R dependent response to infection, we used the NK1R antagonist SR 140333. FIG. 6a Experimental scheme of NK1R antagonist (SR140333) treatment. Susceptible Nlrp3^−/− mice were infected with CY-17 for 24 hours, and the neuropeptide response and disease severity was compared between untreated infected mice, treated and infected mice and sham treated uninfected mice. The mice were either pre-treated with SR140333 i.p. for 30 minutes prior to infection or treated i.p. 1 hour after infection. Sham treated mice received SR140333 i.p. and PBS intravesically. n=10 mice in each treatment group, n=6 in the sham treated, uninfected group. N=2 in the uninfected control group. Means+SEMs of 2 experiments, total number of mice=39. FIG. 6b Protection against gross bladder pathology in SR140333 treated mice compared untreated, infected mice, FIG. 6c Inhibition of NK1R staining in treated mice compared to infected mice not receiving SR140333. Sections were obtained from 4 mice per condition. FIG. 6d Inhibition of Nk1r expression, detected by qRT-PCR analysis of treated mice compared to untreated, infected mice. Sections were obtained from 5 mice per treatment group. FIG. 6e Attenuated SP staining in SR140333 treated infected mice compared to untreated mice (n=4 mice per condition). […] FIG. 6h Galr2 gene expression is not altered after treatment with SR140333. n=5 mice per treatment group (*=p<0.05, **=p<0.01, Mann-Whitney test). FIG. 6i Protection from bladder tissue pathology shown in H&E stained and neutrophil and bacterial immunostained sections from treated versus control mice. […] (n=10 mice per treatment group, n=4 mice per sham group, means+SEMs, *P<0.05, **P<0.01, ***P<0.001, one way Anova).
Susceptible Nlrp3^−/− mice were treated with SR140333 intra-peritoneally (1 mg/kg), one hour before infection (pretreatment) or 30 minutes after infection (post-treatment) with CY-17 (FIG. 6a). The severity of acute cystitis after 24 hours or seven days was examined and neuropeptide expression and disease severity quantified by immunohistochemistry and qRT-PCR of whole bladder RNA extracts, using primers specific for NK1R, Ppt-1 or Galr2 as described above.
Bladder tissue was more intact and the inflammatory cell infiltrate was reduced in tissues.

[2] = test system: differentiated SH-SY5Y cells; assay: Pre-treatment of differentiated SH-SY5Y nerve cells before CY17 infection (confocal imaging, ELISA); type: cell-based, human
Method: (§1) Cells were grown on 8-well chamber slides (6×10^4 cells/well, Thermo Fischer Scientific) or in 6-well plates (6×10^5 cells/well) for 16 hours in media supplemented with 10% FBS. Media were removed, and cells were washed with PBS before adding medium without FBS. Cells were infected with bacteria diluted to appropriate concentration in PBS and incubated for one or four hours at 37° C. with 5% CO2.
(§2) The two cell types were first infected with increasing concentrations of the acute cystitis strain E. coli CY-17 (10^2-10^4 cfu/ml) for 1 to 4 hours. NK1R and SP expression was used as a read out of the cellular response. […] A concentration of 10^4 cfu/ml of CY-17 and four hours of infection was chosen for further studies. Under these conditions, there was little cytotoxicity. To further characterize the neuropeptide response to bladder infection, the in vitro analysis was extended to include GALR2, OrxR2 and TAS2R43. Confocal microscopy was used in this instance. Infected cells were fixed (3.7% formaldehyde, 15 min), permeabilized (0.25% triton X-100, 5% FBS, 10 min), blocked (5% FBS, 1 h at RT), incubated overnight with primary antibodies in 5% FBS: Anti-NK1R (1:100, SC-15323, Santa Cruz), anti-SP, (1:200, ORB11399, Biorbyt), anti-orexin receptor 2, (1:200, AB10470, Abcam), anti-TAS2R43, (1:200, AB65513, Abcam), and anti-GALR2 antibodies (1:100, AB136264, Abcam). Appropriate fluorescently labeled secondary antibodies were used (Alexa Fluor® 488 goat anti-rabbit IgG, A-11034; Life Technologies, (1 hour at Room Temperature). After nuclear staining (DRAQ5, 1:1000, Abcam) slides were mounted (Fluoromount, Sigma-Aldrich), imaged by laser scanning confocal microscopy (MSM510 META confocal microscope, Carl Zeiss) and quantified by ImageJ software 1.46r (NIH).
(§3) HTB-9 cells and differentiated SH-SY5Y cells were pre-treated with SR140333, or IL-1RA Anakinra (500 ng/ml) for 30 minutes before infection with CY17 (10^4 cfu/ml, four hours), or treatment with exogenous recombinant SP (R&D System) or IL-1β (Abnova) (20 ng/ml, four hours). After infection, cells were infected with CY17 and the NK1R, SP and IL-1β response was quantified by confocal imaging. IL-1β- and SP secretion was quantified by ELISA, in culture supernatants. In nerve- and bladder epithelial cells, SR140333 inhibited the SP/NK1R response to infection, consistent with an autocrine activation loop involving SP/NK1R as shown by confocal imaging (FIG. 10a). […] SP activated IL-1β expression and secretion in bladder epithelial cells but had no effect on IL-1β on nerve cells. (*=P<0.05, **=P<0.01, ***=P<0.001, Two-tailed t-test for confocal imaging data and Mann-Whitney U-test for ELISAs.
Furthermore, to examine if the effects of NK1R inhibition can be generalized, we used two additional NK1R antagonists (CP99994 and L703.303). […]

HTB-9 cells = assay: Pre-treatment of HTB-9 bladder epithelial cells before CY17 infection (confocal imaging, ELISA); type: cell-based, human
Method: as §1, §2, §3
Furthermore, to examine if the effects of NK1R inhibition can be generalized, we used two additional NK1R antagonists (CP99994 and L703.303). HTB-9 cells and differentiated SH-SY5Y cells were pre-treated with SR140333, CP99994, L-703.606 or IL-1RA Anakinra (500 ng/ml) for 30 minutes before infection with CY17 (10^4 cfu/ml, four hours), or treatment with exogenous recombinant SP (R&D System) or IL-1β (Abnova) (20 ng/ml, four hours).

[3] = pre-treated 30 minutes before CY17 (10^4 cfu/ml, four hours)
[4] = pre-treated before CY17 infection

## CC(C)Oc1cccc(CC(=O)N2CCC[C@](CC[N+]34CCC(c5ccccc5)(CC3)CC4)(c3ccc(Cl)c(Cl)c3)C2)c1.[Cl-] [SR140333, 1-[2-[(3S)-3-(3,4-Dichlorophenyl)-1-[2-[3-(1-methylethoxy)phenyl]acetyl]-3-piperidinyl]ethyl]-4-phenyl-1-azoniabicyclo[2.2.2]octane chloride]
[1]; 24 hours post infection, vs infected mice without therapy
  gross bladder pathology (edema, hyperemia and bladder enlargement): reduction; also recorded: Protection
[1]; after treatment with SR140333
  Histology score: reduced pathology
[1]; treated Nlrp3^−/− mice vs infected mice without therapy
  inflammatory cell infiltrate in tissues: reduced
[1]; treated versus control mice
  bladder tissue pathology / tissue integrity (H&E, neutrophil and bacterial immunostained sections): more intact; also recorded: Protection
[2]; [3]
  SP/NK1R response to infection (confocal imaging): inhibited
[2]; [4]
  SP secretion (ELISA, culture supernatants): decrease
HTB-9 cells; [3]
  SP/NK1R response to infection (confocal imaging): inhibited
HTB-9 cells; [4]
  IL-1β secretion (ELISA, culture supernatants): inhibited; also recorded: decreased
  SP secretion (ELISA, culture supernatants): decreased
